Values quoted from earlier work, collected in patent US20220356443A1, “PRODUCTION METHOD FOR CEREBRAL ORGANOID” (KEIO UNIVERSITY, priority 2019, published 2022).

Tested on: deposits of amyloid β peptide
Settings: relative to thioflavin-T; general statement on the staining reagent

CNc1ccc(-c2nc3ccccc3s2)cc1 [BTA-1, 2-(4′-methylaminophenyl)benzothiazole]
affinity to deposits of amyloid β peptide, higher than that of thioflavin-T: about 50 times
